Laboratory results: ChEMBL document CHEMBL1132706 (J Med Chem, 1999)

Columns and labels:
[1] = target: T1, Human immunodeficiency virus type 1 integrase (Human immunodeficiency virus 1, UniProt Q7ZJM1)
Description: Inhibition of HIV-1 integrase by radiolabeled oligonucleotide-based assay integration

[2] = target: T1, Human immunodeficiency virus type 1 integrase; remark: listed apart in the source
Description: Compound was evaluated for the inhibitory concentration against HIV-1 integrase by radiolabeled oligonucleotide-based assay 3''-processing

CEM-SS [3] = assay: Compound was evaluated for the cytoprotection fo CEM-SS cells by XTT cytoprotection assay through the NCI AIDS Screen; assay type: functional, cell-based; conditions: Homo sapiens
CEM-SS [4] = assay: Compound was evaluated for the cytoprotection of CEM-SS cells by XTT cytoprotection assay through the NCI AIDS Screen; Not reached due to cytotoxicity; assay type: functional, cell-based, Homo sapiens
CEM-SS [5] = assay: Compound was evaluated for the cytoprotection of CEM-SS cells by XTT cytoprotection assay through the NCI AIDS Screen; assay type: functional, cell-based; conditions: Homo sapiens
CEM-SS [6] = assay: Compound was evaluated for the effect of Order of Addition on Cytoprotection against HIV-1RF at dilution 333,Pretreat and add 1 uM; assay type: functional, Homo sapiens
CEM-SS [7] = assay: Compound was evaluated for the effect of Order of Addition on Cytoprotection against HIV-1RF at dilution 100, Pretreat and add 1 uM; assay type: functional, Homo sapiens
CEM-SS [8] = assay: Compound was evaluated for the effect of Order of Addition on Cytoprotection against HIV-1RF at dilution 1000, Pretreat and add 1 uM; assay type: functional, Homo sapiens
CEM-SS [9] = assay: Compound was evaluated for the effect of Order of Addition on Cytoprotection against HIV-1RF at dilution 100, Pretreat with 100 uM; assay type: functional, Homo sapiens
CEM-SS [10] = assay: Compound was evaluated for the effect of Order of Addition on Cytoprotection against HIV-1RF at dilution 1000, Pretreat with 100 uM; assay type: functional, Homo sapiens
CEM-SS [11] = assay: Compound was evaluated for the effect of Order of Addition on Cytoprotection against HIV-1RF at dilution 100, Pretreat and add 10 uM; assay type: functional, Homo sapiens
CEM-SS [12] = assay: Compound was evaluated for the effect of Order of Addition on Cytoprotection at dilution 333, Add at infection; assay type: functional, Homo sapiens
CEM-SS [13] = assay: Compound was evaluated for the effect of Order of Addition on Cytoprotection against HIV-1RF at dilution 1000, Add at infection; assay type: functional, Homo sapiens
CEM-SS [14] = assay: Compound was evaluated for the effect of Order of Addition on Cytoprotection against HIV-1RF at dilution 1000, Pretreat and add 10 uM; assay type: functional, Homo sapiens
CEM-SS [15] = assay: Compound was evaluated for the effect of Order of Addition on Cytoprotection against HIV-1RF at dilution 333, Pretreat with 100 uM; assay type: functional, Homo sapiens
CEM-SS [16] = assay: Compound was evaluated for the effect of Order of Addition on Cytoprotection against HIV-1RF at dilution 100, Add at infection; assay type: functional, Homo sapiens
CEM-SS [17] = assay: Compound was evaluated for the effect of Order of Addition on Cytoprotection against HIV-1RF at dilution 333, Pretreat and add 10 uM; assay type: functional, Homo sapiens
CEM-SS [18] = assay: Compound was evaluated for the effect of Order of Addition on Cytoprotection against HIV-1RF at dilution 333, Add at infection; assay type: functional, Homo sapiens
MT4 [19] = assay: Concentration of compound required to reduce MT-4 cell viability by 50%; assay type: functional, cell-based; conditions: Homo sapiens
MT4 [20] = assay: Concentration of compound required to protect 50% of MT-4 cells against retroviral cytopathic effects by HIV-1 ([…]); assay type: functional, cell-based; conditions: Homo sapiens

T1 sequence (Q7ZJM1 whole entry): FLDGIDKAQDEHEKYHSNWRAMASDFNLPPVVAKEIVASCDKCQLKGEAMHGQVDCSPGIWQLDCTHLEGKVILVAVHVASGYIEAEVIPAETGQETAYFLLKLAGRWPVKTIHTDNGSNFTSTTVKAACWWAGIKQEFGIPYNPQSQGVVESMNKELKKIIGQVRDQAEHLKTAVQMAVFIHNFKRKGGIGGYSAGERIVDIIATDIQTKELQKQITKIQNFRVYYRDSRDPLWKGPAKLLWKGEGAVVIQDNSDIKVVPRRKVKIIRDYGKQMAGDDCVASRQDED

SMILES | IC50 [1] | IC50 [2] | IC50 (CEM-SS [5]) | also measured
CC(=O)Oc1ccc(/C=C/C(=O)OCCCOC(=O)/C=C/c2ccc(OC(C)=O)c(OC(C)=O)c2)cc1OC(C)=O | > 333 µM | > 333 µM | – | –
CC(=O)Oc1ccc(/C=C/C(=O)O[C@@H](C)[C@H](C)OC(=O)/C=C/c2ccc(OC(C)=O)c(OC(C)=O)c2)cc1OC(C)=O | > 333 µM | > 333 µM | 5.71 µM | –
CC(=O)Oc1ccc(/C=C/C(=O)O[C@H]2CCCC[C@@H]2OC(=O)/C=C/c2ccc(OC(C)=O)c(OC(C)=O)c2)cc1OC(C)=O | > 333 µM | > 333 µM | 5.76 µM | –
C[C@H](OC(=O)/C=C/c1ccc(O)c(O)c1)[C@H](C)OC(=O)/C=C/c1ccc(O)c(O)c1 | 7.8 µM | > 38.4 µM | 3.64 µM | EC50 (CEM-SS [4]): Not reached
COC(=O)C(COC(=O)/C=C/c1ccc(OC(C)=O)c(OC(C)=O)c1)OC(=O)/C=C/c1ccc(OC(C)=O)c(OC(C)=O)c1 (stereo unspecified) | 10.1 µM | 10.1 µM | – | –
O=C(/C=C/c1ccc(O)c(O)c1)O[C@H](C(=O)O)[C@H](OC(=O)/C=C/c1ccc(O)c(O)c1)C(=O)O [CHICORIC ACID] | – | – | – | Control (CEM-SS [6]): 92%; Control (CEM-SS [7]): 56%; Control (CEM-SS [8]): 50%; Control (CEM-SS [9]): 108%; Control (CEM-SS [10]): 168%; Control (CEM-SS [11]): 114%; Control (CEM-SS [12]): 73%; Control (CEM-SS [13]): 60%; Control (CEM-SS [14]): 135%; Control (CEM-SS [15]): 59%; Control (CEM-SS [16]): 141%; Control (CEM-SS [17]): 82%
Cc1cn([C@H]2C[C@H](N=[N+]=[N-])[C@@H](CO)O2)c(=O)[nH]c1=O [ZIDOVUDINE] | – | – | – | Control (CEM-SS [18]): 3%; Control (CEM-SS [9]): 114%; Control (CEM-SS [10]): 121%; Control (CEM-SS [13]): 5%; IC50 (MT4 [19]): 100 µM; Control (CEM-SS [15]): 119%; EC50 (MT4 [20]): 0.005 µM; Control (CEM-SS [16]): 35%

Further lines, with some results ahead:

IC50 [1] | IC50 [2] | SMILES | IC50 (CEM-SS [5]) | also measured
3.8 µM | 2.8 µM | COC(=O)[C@H](COC(=O)/C=C/c1ccc(OC(C)=O)c(OC(C)=O)c1)NC(=O)/C=C/c1ccc(OC(C)=O)c(OC(C)=O)c1 | – | –
7.5 µM | 27.5 µM | O=C(/C=C/c1ccc(O)c(O)c1)OCCCOC(=O)/C=C/c1ccc(O)c(O)c1 | – | IC50 (CEM-SS [3]): 13.9 µM; EC50 (CEM-SS [4]): Not reached
6.5 µM | > 27.5 µM | O=C(/C=C/c1ccc(O)c(O)c1)NCCOC(=O)/C=C/c1ccc(O)c(O)c1 | 9.22 µM | –
7.6 µM | > 24.8 µM | O=C(/C=C/c1ccc(O)c(O)c1)O[C@H]1CCCC[C@@H]1OC(=O)/C=C/c1ccc(O)c(O)c1 | 5.67 µM | EC50 (CEM-SS [4]): Not reached
3.2 µM | 2.8 µM | COC(=O)[C@@H](COC(=O)/C=C/c1ccc(OC(C)=O)c(OC(C)=O)c1)NC(=O)/C=C/c1ccc(OC(C)=O)c(OC(C)=O)c1 | – | –
1.7 µM | 3.3 µM | O=C(/C=C/c1ccc(O)c(O)c1)NC(COC(=O)/C=C/c1ccc(O)c(O)c1)C(=O)O (stereo unspecified) | – | –
